Data from patent US20040018500A1, “Methods and systems for analyzing complex biological systems” (priority 2001, published 2004).

Experiments:
[1] = system: Saccharomyces cerevisiae wild type strain BY4743; assay: AF1 combined gene expression and metabolite data mapped to KEGG reactions and pathways; format: cell-based
Text: In AF1, two different technologies were utilized: gene expression analysis (for examination of mRNA expression) and metabolite analysis. […] As noted previously, existing metabolic databases may be helpful in practicing the methods and systems of the present invention, but many databases include limitations that make their use in data analysis and pathway mapping less than straightforward. […] This caveat to KEGG makes it difficult to pinpoint the correct pathway when attempting to link a gene to a specific pathway. […] The pathway score indicates how meaningful the mapping is, or how likely it is to be correctly indicative of the pathway involved in the perturbation under examination. The method provides a pathway score based on perturbation levels of genes and/or compounds and the information content of each gene and/or compound in the pathway, i.e., a pathway score indicates the extent to which other pathways are mapped to a gene/compound. For example, imagine that two genes are perturbed in a particular experiment. One gene maps to only one pathway, giving a high degree of probability that the perturbed pathway is the one identified in the mapping. The second gene maps to three pathways. In the later example, there is only one-third the probability that the pathway identified in the mapping is the one perturbed. The present invention provides a method for calculating the pathway scores, so that more weight is given to a score of a gene or compound that maps to only one pathway than to a score of a gene or compound that maps to multiple pathways. […] Where n=the total number of genes in the pathway; ipath—count=the number of pathways containing a gene; and j=the number of genes in the pathway that are perturbed. Another factor to be considered when weighting a pathway score is the degree of perturbation. Degree of perturbation can be calculated, for example, based on a number of standard deviations from a norm, and included in an equation such as the one shown above, so that not only the number of pathways is taken into account, but also accounts for the amount of gene transcript or compound present as compared to a control. Compounds were also linked to pathways using the KEGG database. […] Of the 676 compounds under consideration, 77 were detected in the AF1 samples. […] The multiple mapping feature of KEGG makes it difficult to pinpoint the correct pathway when trying to link a compound to a specific pathway. […] A pathway score calculation is applied to the compounds to account for both information content (number of pathways a compound maps to) and perturbation level. The data were then combined to determine the number of reactions showing an enzyme and at least one compound perturbed, and to determine the number of pathways having at least one enzyme and one perturbed compound perturbed. The results of the analysis are represented in Tables 16 and 17, and were difficult to interpret, illustrating that the ability to draw conclusions from compound mapping to pathways is limited when absent additional data.

[2] = system: Saccharomyces cerevisiae wild type strain BY4743; assay: AF1 gene expression analysis (microarray) of yeast treated with antifungal drugs; format: cell-based; conditions: p < 0.05; KEGG pathway mapping
Description: Saccharomyces cerevisiae wild type strain BY4743 was purchased from American Type Culture Center (ATCC, Manassas, Va.). The yeast strain was grown in YPD or SD media. […] The cultures started from fresh single colonies were grown in 1.0 ml YPD overnight at 30° C. […] The OD600 was adjusted to 1.0 with YPD media, then 2.0 ml of each was inoculated into three 250 ml flasks, each containing 50 ml of SD media. […] The cells were kept growing for another two hours, then collected by centrifugation at 4000 rpm for 5 minutes at 4° C. Pellets were washed once with ice-cold water, then were lyophilized overnight at 4° C. […] RNA quality was determined using the Bioanalyzer 2100 and the RNA 6000 assay (Agilent Technologies, Palo Alto, Calif.) according to manufacturer's instructions. RNA concentrations were determined spectrophotometrically by measuring the absorption at 260 nm in an Ultrospec 2000 (Pharmacia Biotech, Piscataway, N.J.). […] Labeled cRNAs were evaluated using the RNA 6000 assay on the Agilent Bioanalyzer 2100. Labeled cRNA concentrations were determined spectrophotometrically by measuring the absorption at 260 nm in an Ultrospec 2000 (Pharmacia Biotech, Piscataway, N.J.). […] Each feature was determined from an array's associated pattern file and a detection algorithm. […] Data was evaluated after combining results from fluor reversal replicate hybridizations. […]

SMILES: C[C@@H]1[C@H](O)[C@@H](C)/C=C/C=C/C=C/C=C/C=C/C=C/C=C/[C@H](O[C@@H]2O[C@H](C)[C@@H](O)[C@H](N)[C@@H]2O)C[C@@H]2O[C@](O)(C[C@@H](O)C[C@@H](O)[C@H](O)CC[C@@H](O)C[C@@H](O)CC(=O)O[C@H]1C)C[C@H](O)[C@H]2C(=O)O [Amphoteracin B]
- Number Of Pathways Having at Least One Enzyme and One Compound Perturbed (# Reactions) [1]: 37
- Number of Reactions Having an Enzyme and at Least One Compound Perturbed [1]: 54
- # Pathways Affected by at Least One Gene [2]: 97
